Where two headings read alike, the source gives them in different places.
Columns and labels:
[1] = tested on: Arabidopsis (Arabidopsis thaliana, Columbia-0); experiment: Survival rate of Arabidopsis after high temperature treatment; type: in vivo; settings: gaseous state 10 nmol/cm^3 for 120 min, then 120 min at 40-45° C. in light; relative to non-exposure sample as 100(%)
Protocol: Arabidopsis (Arabidopsis thaliana, Columbia-0) was exposed to the compound shown in Table 3 in a gaseous state (concentration 10 nmol/cm^3) for 120 min, left standing for 120 min in an environmental control chamber (manufactured by NIPPON MEDICAL & CHEMICAL INSTRUMENTS CO., LTD.) set to 40-45° C. and in the presence of light (100 μmol/m^2·s), and the survival rate after lapse of 3 days was measured.
(§1) Arabidopsis was seeded in artificial soil material “Jiffy-7” (SAKATA SEED CORPORATION), cultured for 14 hr in light period/10 hr in dark period at 23° C. for 2-3 weeks and used.
In Table 3, the survival rate is a relative value with the survival rate of a non-exposure sample (sample left standing at 45° C. for 120 min without exposure to the compound) as 100(%).

HSFA2 gene [2] = experiment: Expression level of HSFA2 gene in Arabidopsis (qPCR); type: in vivo, Arabidopsis thaliana; settings: for fold induction at 10 nmol/cm3: Arabidopsis thaliana, 0.5 h, read-out: relative transcription level (fold), HSFA2 gene
Excerpt: (§2) Total RNA was extracted using RNeasy Plant Mini Kit (Quiagen), and cDNA was successively synthesized using RevaTra Ace Kit (TOYOBO CO., LTD.).
(§3) HSFA2 gene and DREB2A gene were quantified using SYBR Green qPCR Mix (TOYOBO CO., LTD.), LineGene Real-time PCR detection system (BioFlux).
(§4) The primers used for each gene expression analysis are as described below.
Arabidopsis (Arabidopsis thaliana, Columbia-0) was exposed to the compound shown in Table 2 in a gaseous state (concentration 10 nmol/cm^3) for 30 min (temperature 23° C.), and the expression level of HSFA2 gene was analyzed.
as §1

photochemical system II = experiment: Photosynthesis activity (Fv/Fm) of Arabidopsis; type: in vivo, Arabidopsis thaliana; settings: gaseous state 25 nmol/cm^3, 120 min, 25° C., light 100 μmol/m^2·s, dark adaptation 5 min
Protocol: The photosynthesis activity was measured using the maximum quantum yield (Fv/Fm) of photochemical system II as an index. Test plant object was subjected to dark adaptation (for 5 min), and Fv/Fm was measured using photosynthesis measuring apparatus Junior-PAM (Walz). The measurement was performed at least three times for different sites of the leaf and the averaged numerical value was taken as photosynthesis activity.
Arabidopsis (Arabidopsis thaliana, Columbia-0) was exposed to the compound shown in Table 4 in a gaseous, state (concentration 25 nmol/cm^3) for 120 min (temperature 25° C.) in the presence of light (100 μmol/m^2·s), subjected to a dark adaptation treatment for 5 min, and photosynthesis activity (Fv/Fm) was measured.
as §1

HSFA2 gene [3] = experiment: Expression level of HSFA2 gene in tomato (qPCR); type: in vivo, Solanum lycopersicum; settings: tomato (Microtom), gaseous state 10 nmol/cm^3, 30 min, 25° C.; non-exposure as 1
Protocol: as §2, §3, §4
Tomato (Solanum lycopersicum, Microtom) was exposed to (E)-2-hexenal in a gaseous state (concentration 10 nmol/cm^3) for 30 min (temperature 25° C.), and the expression level of HSFA2 gene was analyzed to find 20.2-fold (relative transcription level with non-exposure to (E)-2-hexenal as 1).
The tomato was seeded in artificial soil material “Jiffy-7” (SAKATA SEED CORPORATION), cultured for 14 hr in light period/10 hr in dark period at 23° C. for 2-3 weeks and used.

HSFA2 gene [4] = experiment: Expression level of HSFA2 gene in rice (qPCR); type: in vivo, Oryza sativa; settings: rice (Nipponbare), gaseous state 10 nmol/cm^3, 30 min, 25° C.; non-exposure as 1
Protocol: as §2, §3, §4
(§5) Rice (Oryza sativa, Nipponbare) was exposed to (E)-2-hexenal in a gaseous state (concentration 10 nmol/cm^3) for 30 min (temperature 25° C.), and the expression level of HSFA2 gene and DREB2A gene was analyzed. As a result, the expression level of HSFA2 gene was 3.55-fold (relative transcription level with non-exposure to (E)-2-hexenal as 1), and the expression level of DREB2A was 3.93-fold (relative transcription level with non-exposure to (E)-2-hexenal as 1).
(§6) The rice was seeded in artificial soil material “Jiffy-7” (SAKATA SEED CORPORATION), cultured for 14 hr in light period/10 hr in dark period at 23° C. for 2-3 weeks and used.

HSP17.6-C = experiment: Expression level of HSP gene HSP17.6-C in Arabidopsis (microarray); type: in vivo, Arabidopsis thaliana; settings: gaseous state 10 nmol/cm^3, 30 min, 23° C., non-exposure as 1
Protocol: (§7) HSP gene was quantified by microarray analysis. The total RNA was extracted using RNeasy Plant Mini Kit (Quiagen), and double stranded cDNA was synthesized using Superscript Choice System (Life Technologies). cDNA was labeled with Cy3 by using NimbleGen One-color Labeling Kit (NimbleGen), and hybridized to DNA array (ATH6_60 mer_expr X4, NmibleGen) at 42° C. for 6 hr. DNA array was washed, Cy3 fluorescence intensity was measured by Axon GenePix 4000B scanner (NimbleGen) and quantified.
(§8) Arabidopsis (Arabidopsis thaliana, Columbia-0) was exposed to (E)-2-hexenal in a gaseous state (concentration 10 nmol/cm^3) for 30 min (temperature 23° C.), and the expression level of HSP genes (HSP17.6-C, HSP17.6-A) was analyzed.
as §1

HSP17.6-A = experiment: Expression level of HSP gene HSP17.6-A in Arabidopsis (microarray); type: in vivo, Arabidopsis thaliana; settings: gaseous state 10 nmol/cm^3, 30 min, 23° C., non-exposure as 1
Protocol: as §7, §8, §1

DREB2A gene = experiment: Expression level of DREB2A gene in rice (qPCR); type: in vivo, Oryza sativa; settings: rice (Nipponbare), gaseous state 10 nmol/cm^3, 30 min, 25° C.; non-exposure as 1
Protocol: as §2, §3, §4, §5, §6

[5] = Arabidopsis, gaseous state 10 nmol/cm^3, 30 min, 23° C., relative to acetonitrile as 1

Row | Compound | fold induction at 10 nmol/cm3 (HSFA2 gene [2]; [5]) | photosynthesis activity (Fv/Fm) (photochemical system II) | also measured
1 | CCC/C=C/C(C)=O [(E)-3-hepten-2-one] | 266 | – | survival rate (%) after 3 days [1]: 159%
2 | CC/C=C\CCC=O [(Z)-4-heptenal] | 320 | 0.743 | –
3 | CCCCCC/C=C/C=O [(E)-2-nonenal] | 488 | 0.741 | –
4 | CC/C=C/C=O [(E)-2-pentenal] | 470 | 0.710 | –
5 | CCCCC/C=C/C=O [(E)-2-octenal] | 777 | 0.732 | –
6 | CC#N [acetonitrile, reference compound] | – | 0.729 | fold induction at 10 nmol/cm3 (HSFA2 gene [2]): 1
7 | CCC/C=C/C=O [(E)-2-hexenal] | – | 0.739 | survival rate (%) after 3 days [1]: 170%; relative transcription level, HSFA2 gene (HSFA2 gene [3]): 20.2 fold; relative transcription level, HSFA2 gene (HSFA2 gene [4]): 3.55 fold; Relative transcription level (fold) HSP17.6-C (HSP17.6-C): 45.9 fold; Relative transcription level (fold) HSP17.6-A (HSP17.6-A): 36.3 fold; fold induction at 10 nmol/cm3 (HSFA2 gene [2]): 377; relative transcription level, DREB2A gene (DREB2A gene): 3.93 fold
8 | CCCCCCC/C=C/C=O [(E)-2-decenal] | – | 0.753 | –
9 | CCC/C=C/CO [(E)-2-hexenol, reference compound] | 0.735 | – | –
10 | C=CC=O [2-propenal, reference compound] | – | 0.393 | –
11 | n-hexenal [reference compound] | – | – | relative transcription level (fold), HSFA2 gene (HSFA2 gene [2]; [5]): 7.9 fold
12 | CCCCCC(C)=O [2-heptanone, reference compound] | 1.1 | – | –
13 | CC/C=C\CCCCC=O [(Z)-6-nonenal] | 270 | 0.745 | –
14 | C/C=C/C=O [(E)-2-butenal] | – | 0.726 | survival rate (%) after 3 days [1]: 140%; relative transcription level (fold), HSFA2 gene (HSFA2 gene [2]; [5]): 469 fold
15 | CCCC/C=C/C=O [(E)-2-heptenal] | 642 | 0.748 | –
